The values that follow come from ChEMBL document CHEMBL5724914, “Linking interpersonal differences in gut microbiota composition and drug biotransformation activity” (2024).

The conditions of data set [1]: human gut metagenome, 24 h, 2 µM.
The nature of data set [2]: The drug is tested on WLS-039 corresponding to human gut metagenome with ENA study accession number: PRJEB37062 and ENA sample accession number: ERS12561746 for biotransformation under anaerobic condition. The drug concentrations were measured over 9 timepoints collected between 0 and 24 hours of incubation by liquid-chromatography-coupled mass spectrometry (LC–MS). The settings on record: 2 µM.

A short description of data set [3]: The drug is tested on Z-010 corresponding to metagenome with ENA study accession number: PRJEB37062 and ENA sample accession number: ERS12561810 for biotransformation under anaerobic condition. The drug concentrations were measured over 9 timepoints collected between 0 and 24 hours of incubation by liquid-chromatography-coupled mass spectrometry (LC–MS). The settings on record: 2 µM.

The nature of data set [4]: The drug is tested on WLS-350 corresponding to human gut metagenome with ENA study accession number: PRJEB37062 and ENA sample accession number: ERS12561789 for biotransformation under anaerobic condition. The drug concentrations were measured over 9 timepoints collected between 0 and 24 hours of incubation by liquid-chromatography-coupled mass spectrometry (LC–MS). The settings on record: 2 µM.

The conditions of data set [5]: human gut metagenome, 24 h, 2 µM. This is another data set of the same source.
Data set [6] in a line: The drug is tested on Z-018 corresponding to pig gut metagenome with ENA study accession number: PRJEB37062 and ENA sample accession number: ERS12561817 for biotransformation under anaerobic condition. The drug concentrations were measured over 9 timepoints collected between 0 and 24 hours of incubation by liquid-chromatography-coupled mass spectrometry (LC–MS). The settings on record: 2 µM.

The nature of data set [7]: The drug is tested on WLS-090 corresponding to human gut metagenome with ENA study accession number: PRJEB37062 and ENA sample accession number: ERS12561753 for biotransformation under anaerobic condition. The drug concentrations were measured over 9 timepoints collected between 0 and 24 hours of incubation by liquid-chromatography-coupled mass spectrometry (LC–MS). The settings on record: 2 µM.

For data set [8] the following is noted: human gut metagenome, 24 h, 2 µM. The source holds these as a separate data set.
The conditions of data set [9]: human gut metagenome, 24 h, 2 µM. The source holds these as a separate data set.
The nature of data set [10]: The drug is tested on WLS-010 corresponding to human gut metagenome with ENA study accession number: PRJEB37062 and ENA sample accession number: ERS12561743 for biotransformation under anaerobic condition. The drug concentrations were measured over 9 timepoints collected between 0 and 24 hours of incubation by liquid-chromatography-coupled mass spectrometry (LC–MS). The settings on record: 2 µM.

The conditions of data set [11]: human gut metagenome, 24 h, 2 µM. The source holds these as a separate data set.
Data set [12] can be described thus: The drug is tested on WLS-038 corresponding to human gut metagenome with ENA study accession number: PRJEB37062 and ENA sample accession number: ERS12561745 for biotransformation under anaerobic condition. The drug concentrations were measured over 9 timepoints collected between 0 and 24 hours of incubation by liquid-chromatography-coupled mass spectrometry (LC–MS). The settings on record: 2 µM.

The nature of data set [13]: The drug is tested on Z-014 corresponding to rat gut metagenome with ENA study accession number: PRJEB37062 and ENA sample accession number: ERS12561814 for biotransformation under anaerobic condition. The drug concentrations were measured over 9 timepoints collected between 0 and 24 hours of incubation by liquid-chromatography-coupled mass spectrometry (LC–MS). The settings on record: 2 µM.

Data set [14] in a line: The drug is tested on WLS-027 corresponding to human gut metagenome with ENA study accession number: PRJEB37062 and ENA sample accession number: ERS12561744 for biotransformation under anaerobic condition. The drug concentrations were measured over 9 timepoints collected between 0 and 24 hours of incubation by liquid-chromatography-coupled mass spectrometry (LC–MS). The settings on record: 2 µM.

A short description of data set [15]: The drug is tested on Z-022 corresponding to mouse gut metagenome with ENA study accession number: PRJEB37062 and ENA sample accession number: ERS12561821 for biotransformation under anaerobic condition. The drug concentrations were measured over 9 timepoints collected between 0 and 24 hours of incubation by liquid-chromatography-coupled mass spectrometry (LC–MS). The settings on record: 2 µM.

For data set [16] the following is noted: human gut metagenome, 24 h, 2 µM. This is another data set of the same source.
For data set [17] the following is noted: human gut metagenome, 24 h, 2 µM. This is another data set of the same source.
Data set [18] is described as follows: The drug is tested on Z-029 corresponding to rat gut metagenome with ENA study accession number: PRJEB37062 and ENA sample accession number: ERS12561828 for biotransformation under anaerobic condition. The drug concentrations were measured over 9 timepoints collected between 0 and 24 hours of incubation by liquid-chromatography-coupled mass spectrometry (LC–MS). The settings on record: 2 µM.

For data set [19] the following is noted: human gut metagenome, 24 h, 2 µM. This is another data set of the same source.
The conditions of data set [20]: human gut metagenome, 24 h, 2 µM. The source holds these as a separate data set.
Note: call rule not given here.

As to `Br.CN(C)CCCC1(c2ccc(F)cc2)OCc2cc(C#N)ccc21` (stereo not given) [CITALOPRAM HYDROBROMIDE], the “Bacterial Biotransformation” value is recorded as “Compound NOT metabolized” in [1]; “Compound NOT metabolized” in data set [2]; “Compound metabolized” in [3]; “Compound NOT metabolized” in data set [4]; “Compound NOT metabolized” in data set [5]; “Compound NOT metabolized” in [6]. In addition, the “Bacterial Biotransformation” value in [7] is “Compound metabolized”; in data set [8], “Compound NOT metabolized”; in data set [9], “Compound metabolized”; in [10], “Compound NOT metabolized”; in [11], “Compound NOT metabolized”; in data set [12], “Compound NOT metabolized”. In addition, the “Bacterial Biotransformation” value in data set [13] was “Compound NOT metabolized”; in data set [14], “Compound NOT metabolized”; in [15] it was “Compound NOT metabolized”; in data set [16] it was “Compound metabolized”; in data set [17], “Compound metabolized”; in [18] it was “Compound NOT metabolized”. In addition, the “Bacterial Biotransformation” value is on record as “Compound NOT metabolized” in [19] and “Compound metabolized” in data set [20].
For the compound `CN(C)CCC=C1c2ccccc2C=Cc2ccccc21` [CYCLOBENZAPRINE], the “Bacterial Biotransformation” value in [1] is recorded as “Compound NOT metabolized”; in data set [2], “Compound metabolized”; in data set [3], “Compound metabolized”; in [4] it was “Compound metabolized”; in data set [5], “Compound metabolized”; in data set [6] it was “Compound metabolized”. The “Bacterial Biotransformation” value in data set [7] was “Compound metabolized”; in [8], “Compound metabolized”; in data set [9], “Compound metabolized”; in data set [10] it was “Compound metabolized”; in data set [11] it was “Compound metabolized”; in data set [12] it was “Compound NOT metabolized”. Besides, the “Bacterial Biotransformation” value is recorded as “Compound NOT metabolized” in data set [13]; “Compound metabolized” in data set [14]; “Compound NOT metabolized” in [15]; “Compound NOT metabolized” in data set [16]; “Compound metabolized” in data set [17]; “Compound NOT metabolized” in [18]. Besides, the “Bacterial Biotransformation” value in data set [19] and in [20] was “Compound metabolized” throughout.
On to `O=C(Nc1ccccc1)OCC(CN1CCCCC1)OC(=O)Nc1ccccc1` (stereo not given) [DIPERODON], for which the “Bacterial Biotransformation” value in [1] is “Compound NOT metabolized”; in data set [2], “Compound NOT metabolized”; in [3] it was “Compound metabolized”; in data set [4] it was “Compound metabolized”; in data set [5] it was “Compound NOT metabolized”; in data set [6], “Compound NOT metabolized”. Moreover, the “Bacterial Biotransformation” value in data set [7] is reported as “Compound metabolized”; in [8], “Compound metabolized”; in data set [9], “Compound NOT metabolized”; in [10], “Compound metabolized”; in [11], “Compound NOT metabolized”; in [12], “Compound NOT metabolized”. The “Bacterial Biotransformation” value is listed as “Compound NOT metabolized” in data set [13]; “Compound metabolized” in [14]; “Compound NOT metabolized” in data set [15]; “Compound metabolized” in data set [16]; “Compound metabolized” in data set [17]; “Compound NOT metabolized” in [18]. For the same compound, the “Bacterial Biotransformation” value in data set [19] is on record as “Compound NOT metabolized”; in [20] it was “Compound metabolized”.
Consider `CC(C)N(CCC(C(N)=O)(c1ccccc1)c1ccccn1)C(C)C.O=P(O)(O)O` (stereo not given) [DISOPYRAMIDE PHOSPHATE], for which the “Bacterial Biotransformation” value in [1], in [2], in [3], in data set [4], in data set [5] and in [6] was “Compound NOT metabolized” each time. The “Bacterial Biotransformation” value in [7] was “Compound metabolized”; in data set [8], “Compound NOT metabolized”; in data set [9], “Compound metabolized”; in [10] it was “Compound NOT metabolized”; in data set [11], “Compound NOT metabolized”; in [12], “Compound NOT metabolized”. Besides, the “Bacterial Biotransformation” value in data set [13], in [14], in data set [15], in data set [16], in data set [17] and in data set [18] was “Compound NOT metabolized” each time. Also, the “Bacterial Biotransformation” value in [19] and in data set [20] was “Compound NOT metabolized” in each case.
As to `C[C@@H](CO)NC(=O)[C@@H]1C=C2c3cccc4[nH]cc(c34)C[C@H]2N(C)C1.O=C(O)/C=C\C(=O)O` [ERGONOVINE MALEATE], the “Bacterial Biotransformation” value is reported as “Compound NOT metabolized” in data set [1]; “Compound metabolized” in data set [2]; “Compound NOT metabolized” in data set [3]; “Compound metabolized” in data set [4]; “Compound metabolized” in [5]; “Compound metabolized” in [6]. Moreover, the “Bacterial Biotransformation” value is on record as “Compound metabolized” in [7]; “Compound metabolized” in data set [8]; “Compound metabolized” in data set [9]; “Compound metabolized” in [10]; “Compound NOT metabolized” in data set [11]; “Compound metabolized” in [12]. The “Bacterial Biotransformation” value in data set [13] is “Compound NOT metabolized”; in data set [14], “Compound metabolized”; in data set [15] it was “Compound NOT metabolized”; in data set [16], “Compound NOT metabolized”; in data set [17], “Compound metabolized”; in [18], “Compound NOT metabolized”. In addition, the “Bacterial Biotransformation” value in data set [19] and in [20] was “Compound NOT metabolized” each time.
As for `CCN(CC)C(C)CN1c2ccccc2Sc2ccccc21` (stereo not given) [ETHOPROPAZINE], the “Bacterial Biotransformation” value in data set [1], in [2], in data set [3], in data set [4], in data set [5] and in data set [6] was “Compound metabolized” throughout. The “Bacterial Biotransformation” value in data set [7] is “Compound metabolized”; in data set [8], “Compound metabolized”; in data set [9] it was “Compound metabolized”; in data set [10], “Compound metabolized”; in [11], “Compound metabolized”; in data set [12], “Compound NOT metabolized”. Further, the “Bacterial Biotransformation” value in data set [13] is “Compound NOT metabolized”; in data set [14] it was “Compound metabolized”; in [15] it was “Compound NOT metabolized”; in data set [16], “Compound metabolized”; in [17], “Compound metabolized”; in data set [18], “Compound NOT metabolized”. Besides, the “Bacterial Biotransformation” value in data set [19] and in data set [20] was “Compound metabolized” each time.
